Drawing on BindingDB's records for doi:10.1016/j.bmcl.2017.01.084 (China Pharmaceutical University, 2017), this text covers EC50 for 23 compounds.

Structures are written as SMILES. pEC50: −log10 of the molar value.

A short description of this experiment: Agonist activity at VDR in human HL60 cells assessed as induction of cell differentiation by measuring increase in NBT positive cells by Wright staining based microscopic method.
For `CCn1c(C(=O)NCc2ccc(OC)cc2)ccc1C(CC)(CC)c1ccc(C#CC(O)(CC)CC)c(C)c1`, the pEC50 (commonly the EC50 on a negative log10 scale, so that one unit is a factor of ten) is less than 7.30. As for `C#CCCOC(=O)c1ccc(C(CC)(CC)c2ccc(C#CC(O)(CC)CC)c(C)c2)n1CC`, the pEC50 is less than 7.30. With `CCN(CC)CCNC(=O)c1cc(C(CC)(CC)c2ccc(C#CC(O)(CC)CC)c(C)c2)cn1CC` the figure was 8.15; with `CCCCC(=O)c1ccc(C(CC)(CC)c2ccc(C#CC(O)(CC)CC)c(C)c2)n1CC`, less than 7.30. Then `CCn1cc(C(CC)(CC)c2ccc(C#CC(O)(CC)CC)c(C)c2)cc1C(=O)NCCC(=O)O`, with less than 7.30. With `CCn1cc(C(CC)(CC)c2ccc(C#CC(O)(CC)CC)c(C)c2)cc1C(=O)N[C@H](C(=O)O)C(C)C` the figure was 7.89.

Consider `CCN(CC)CCCNC(=O)c1ccc(C(CC)(CC)c2ccc(C#CC(O)(CC)CC)c(C)c2)n1CC`, for which the pEC50 was 7.16. For the compound `CCn1c(C(=O)NCC(=O)O)ccc1C(CC)(CC)c1ccc(C#CC(O)(CC)CC)c(C)c1`, the pEC50 is 8.03.

For the compound `CCn1c(C(=O)On2nnc3ccccc32)ccc1C(CC)(CC)c1ccc(C#CC(O)(CC)CC)c(C)c1`, the pEC50 was less than 7.30. Take `CCN(CC)CCNC(=O)c1ccc(C(CC)(CC)c2ccc(OCC(O)C(C)(C)C)c(C)c2)n1CC` (stereo not drawn): the pEC50 is 8.19. Then `CCn1cc(C(CC)(CC)c2ccc(C#CC(O)(CC)CC)c(C)c2)cc1C(=O)N[C@@H](C)CO`, with 8.14; and `CCn1c(C(=O)N[C@H](C(=O)O)C(C)C)ccc1C(CC)(CC)c1ccc(C#CC(O)(CC)CC)c(C)c1`, with 7.74. With `CCn1c(C(=O)NCCC(=O)OC)ccc1C(CC)(CC)c1ccc(C#CC(O)(CC)CC)c(C)c1`, the pEC50 was less than 7.30.

In the case of `CCn1cc(C(CC)(CC)c2ccc(C#CC(O)(CC)CC)c(C)c2)cc1C(=O)NCCCN(C)C`, the pEC50 was 6.85. In the case of `CCn1cc(C(CC)(CC)c2ccc(C#CC(O)(CC)CC)c(C)c2)cc1C(=O)NCC(=O)O`, the pEC50 is 7.27. Regarding `CCn1c(C(=O)NCCC(=O)O)ccc1C(CC)(CC)c1ccc(C#CC(O)(CC)CC)c(C)c1`, the pEC50 was 6.53. Then `CCn1c(C(=O)NCCCO)ccc1C(CC)(CC)c1ccc(C#CC(O)(CC)CC)c(C)c1`, with 6.86. Regarding `CCN(CC)CCNC(=O)c1ccc(C(CC)(CC)c2ccc(C#CC(O)(CC)CC)c(C)c2)n1CC`, the pEC50 is 8.00. With `CCCCC(=O)c1cc(C(CC)(CC)c2ccc(C#CC(O)(CC)CC)c(C)c2)cn1CC` the figure was less than 7.30; with `CCn1cc(C(CC)(CC)c2ccc(C#CC(O)(CC)CC)c(C)c2)cc1C(=O)OCCO`, 7.89; with `CCn1cc(C(CC)(CC)c2ccc(C#CC(O)(CC)CC)c(C)c2)cc1C(=O)N[C@@H](C(=O)O)C(C)C`, 7.17. Then `CCn1cc(C(CC)(CC)c2ccc(C#CC(O)(CC)CC)c(C)c2)cc1C(=O)NCCN(C)C`, with 7.72; and `CCn1cc(C(CC)(CC)c2ccc(C#CC(O)(CC)CC)c(C)c2)cc1C(=O)NCC(=O)OC`, with 6.54.
